Data published in US12503448B2, “Antibacterial and antiparasitic quinoxaline-2,3-diamine derivatives” (University College Cardiff Consultants Limited, priority 2019, dated 2025).
≈ marks a conversion by molar mass, not a printed value. Like-named read-outs stand apart in the source and are kept apart here.

Assays:
[1] = Mouse pharmacokinetics, oral cassette dosing; details: for AUC(0-t) / Cmax / MRT last / Tmax: male, C57/BL6, mouse, plasma, po, 2.5 mg/kg; for Tlast: oral, nominal dose 2.5 mg/kg, cassette
Description: Non-compartmental mouse pharmacokinetics (Male C57/BL6 Mouse, Fasted; 3 mice per group) were determined after oral administration of a nominal dose of 2.5 mg/kg of these formulations in cassettes (5 compounds/group) according to the protocols employed by WuXi (https://www.wuxiapptec.com; the CRO that conducted these studies).

[2] = test system: Schistosoma mansoni; experiment: Anti-schistosomal in vivo efficacy screen (murine model of schistosomiasis); details: 100 mg/kg oral, two doses (day 1 and day 3), mice
Description: Anti-Schistosomal in vivo Efficacy Screen
An anti-schistosomal efficacy trial of the compounds described herein was conducted on a murine model of Schistosomiasis using the following procedure. Schistosoma mansoni cercaria were prepared from infected Biomphalaria glabrata snails by inducing synchronous shedding upon exposure to light for 40 minutes (in artificial pond water). […] A maximum of 6 mice were housed in a cage for the duration of the 7-week infection.
At 6 wks post infection (Day 42 post infection), mice were dosed with anthelmintic chemicals using autoclaved gavage needles for oral delivery. The gavage needle was dipped into a concentrated solution of sucrose (approx. 1 g/ml) before dosing as a refinement measure to reduce stress-related reactions.
For oral dosing, the compounds (dry powder) were weighed and prepared in an appropriate excipient (e.g. 10% DMSO, 20% Kolliphor EL and 70% sterile water). […]
At the end of the treatment (on day 48 post-infection), mice were perfused after receiving an intra-peritoneal administration of non-recoverable dose of sodium pentobarbital (100 μl/10 g body weight) containing 100 U/ml heparin solution (in 1×PBS). […] After incubation in a humidified environment containing 5% CO2 at 37° C. for at least 1 h, the quantification of worm burden per each mouse of each treatment was performed. […]

[3] = Metabolic stability in mouse liver microsomes; details: liver microsomes
[4] = Semi thermodynamic solubility; details: thermodynamic from solid
[5] = test system: F. hepatica newly excysted juveniles (NEJs); experiment: Newly excysted juveniles (NEJs) drug screen; type: cell-based, Fasciola hepatica; parameters: scale not given here; details: 10 μM, 72 h; higher score indicates lower worm activity
Description: Newly Excysted Juveniles (NEJs) Drug Screen
F. hepatica (Italian strain) metacercariae were obtained from Ridgeway Research, Gloucestershire, UK and stored at 4° C. Newly excysted juveniles (NEJs) from metacercariae were produced based on an optimisation introduced to the excystment method published by Dixon et al. and Wilson et al (Dixon, K. E., The physiology of excystment of the metacercaria of Fasciola hepática L. Parasitology, 1966, 56, 431-456.; Wilson, L. R., Good, R. T., Panaccio, M., Wijffels, G. L., Sandeman, R. M., Spithill, T. W, Fasciola hepatica: Characterization and Cloning of the Major Cathepsin B Protease Secreted by Newly Excysted Juvenile Liver Fluke. Experimental Parasitology 1998, 88, 85-94).
After excystment, NEJs were distributed into a 24 well tissue culture plate at a density of 25 parasites per well containing 1 mL of pre-warmed NEJs culture media. Compounds were added to respective wells and NEJ/compound co-cultures were incubated at 37° C. in an atmosphere containing 5% CO2 for 72 hours at a final concentration of 10 μM.
F. hepatica NEJs (25 per well) were incubated with the three compounds at a concentration of 10 μM (in 0.1% DMSO) and cultured for 72 hrs at 37° C. in an atmosphere containing 5% CO2. Control wells (25 NEJs per well) included those containing 0.1% DMSO (solvent) and RMPI (media) as negative controls or 10 μM Triclabendazole (0.1% DMSO, as positive control, labelled “Tbz” (Comp. 3). After 72 hrs, all NEJs were scored for phenotype and motility metrics. For each treatment, an average of both phenotype and motility score was calculated based on the individual parasite scores (across two independent replicates), wherein a higher score indicates lower worm activity. SD is reported on the bar chart.

[6] = test system: S. mansoni schistosomula; experiment: 72 hours schistosomula drug screen; type: cell-based, Schistosoma mansoni; details: for Selectivity Index Schistosomula: HepG2 CC50 over schistosomula EC50; for EC50: Schistosoma mansoni
Description: Biological Screening 72 Hours Schistosomula Drug Screen […] G. Colley, […], Schistosoma mansoni: simplified method for the production of schistosomules., Exp. Parasitol. 35 (1974) 44-51. Newly transformed schistosomula were prepared for 72 hour high throughput screening (HTS) in 384-well black-sided microtiter plates (Perkin Elmer, MA, USA) as described in M. Nur-e-alam, M. Yousaf, […]. Bari, H. A. Ghabbour, […]. Ho, A. J. […], Neoclerodane Diterpenoids from […], Teucrium […]. Nat. […] The data obtained in this manner is shown in Table 1 in the columns labelled “Phenotype”, “Motility” and “Schistosomula average”.

[7] = MTT assay on HepG2 cells; type: cell-based; details: human
Description: MTT Assay on HepG2 Cells Human Hepatocyte Carcinoma (HepG2) cells (85011430, Sigma Aldrich) were used to assess the overt toxicity of these anti-infective compounds. […] A negative control (1% v/v Triton X-100; X100, Sigma-Aldrich) was also included in each screen. After addition of compounds, each plate was then incubated for a further 20 hrs before application of MTT reagent (prepared as described in Nur-[…], Bari A, Ghabbour […], Hoffmann […] Nat Prod. 2017 Jun. 23; 80(6):1900-1908 for the assessment of compound cytotoxicity using the MTT assay. […] The plate was then further incubated for 4 hrs. After incubation, each plate was blotted dry under the laminar flow to remove the MTT treated culture media. A 100 μl DMSO: isopropanol (1:1) solution was then added to each well and the plate was then subsequently incubated for 10 minutes at 37° C. Following incubation, each plate was shaken again and then absorbance measured at 570 nm. The absorbance reading was corrected based on the average value of the wells used as blank (no cells). […] The data obtained in this manner is shown in Table 1 in the columns labelled “HepG2”. […] The selectivity indexes for schistosomula and adult worms are shown in the final two columns in Table 1.

[8] = test system: H3K4 methylation; experiment: Histone extraction and detection of global H3K4 methylation in treated adult worms; type: cell-based, Schistosoma mansoni; details: sub-lethal concentration 0.0024 μM, male and female adult worms
[9] = test system: S. mansoni adult worms; experiment: Adult worm drug screen (WHO scoring, WormassayGP2); type: cell-based, Schistosoma mansoni
Text: Mice (MF-1 mice, Harlan, UK), infected 7 weeks previously with 180 cercaria, were euthanised with an intraperitoneal injection of phenobarbital/heparin solution. Adult worms were recovered by perfusion of the portal system and subjected to drug screening as previously described in Padalino G, Ferla S, Brancale A, Chalmers I W, Hoffmann K F. Int J Parasitol Drugs Drug Resist. 2018 December; 8(3):559-570; in Whiteland H L, Chakroborty A, Forde-Thomas J E, Crusco A, Cookson A, Hollinshead J, Fenn C A, Bartholomew B, Holdsworth P A, Fisher M, Nash R J, Hoffmann K F. Int J Parasitol Drugs Drug Resist. 2018 December; 8(3):465-474; and in Crusco A, Bordoni C, Chakroborty A, Whatley K C L, Whiteland H, Westwell A D, Hoffmann K F. Eur J Med Chem. 2018 May 25; 152:87-100. The data obtained in this manner is shown in Table 1 in the columns labelled “Adult worm”.
Regarding the quantification of drug treatment on adult worms (e.g. decreased activity, paralysis or sluggishness), two different approaches were used, as described below. Where egg deposition was noticed, eggs were removed and counted using a Sedgewick rafter slide.
Adult worms were scored using the standardized microscopic WHO-TDR scoring system previously described by Ramirez, B., Bickle, Q., Yousif, F., Fakorede, F., Mouries, M.-A., Nwaka, S. in Schistosomes: Challenges in compound screening, Expert Opin Drug Discov. 2007 October; 2(s1): S53-61. This scoring system (0-4) identifies changes in worm movement and is defined according to the following scoring matrix: 0=no movement, 1=no movement with visible gut peristalsis, 2=minimal movement (occasional movement from anterior or posterior end of the worm), 3=slow continuous movement and 4=normal movement.
A digital image processing-based system was also used to assess parasite motility after drug treatment and is a modification of methods previously described by Marcellino C., Gut, J., Lim, K., Singh R., McKerrow, L. and Sakanari, J. WormAssay: a novel computer application for whole-plate motion-based screening of macroscopic parasites. PLoS Negl Trop Dis. 2012 January:6(1):e1494. This allowed for objective verification of the WHO method described above. The data obtained with this quantification method is shown in Table 1 in the columns labelled “Adult worm”.

[10] = in vitro; details: plasma
[11] = average of phenotype and motility, read-out: EC50 Schistosomula average
[12] = schistosomula, 72 hour culture, read-out: EC50 Motility
[13] = schistosomula, 72 hour culture, read-out: EC50 Phenotype

AUC(0-t) [1] [ng·h/mL] | Cmax [1] [ng/mL] | MRT last [1] [h] | Tmax [1] [h] | Tlast [1] [h] | half-life at 1 μM [3] [h] | microsomal CLint at 1 μM [3] [µL/min/mg] | solubility thermodynamic [4] [µM] | EC50 [6, 11] [nM] | EC50 [6, 12] [nM] | EC50 [6, 13] [nM] | Compound | Motility (M) Mean score [5] | Phenotype (P) Mean score [5] | Selectivity Index Schistosomula [6] | other results
436 | 90.4 | 4.25 | 3.33 | 8.00 | 2.52 | 9.18 | 12.7 (≈ 5.41 µg/mL) | 470 | 530 | 400 | O=[N+]([O-])c1ccc2nc(Nc3ccc(Cl)cc3)c(Nc3ccc(Cl)cc3)nc2c1 [Compound 4, N^2, N^3-bis(4-chlorophenyl)-6-nitroquinoxaline-2,3-diamine] | 4.71 | 5.13 | 28 | reduction in worm burden in vivo compared to the vehicle [2]: 35.5%; reduction in egg count in vivo compared to the vehicle ([2]; liver eggs): 39.9%
337 | 79.3 | 4.22 | 4 | 8.00 | 1.45 | 16 | 6.95 (≈ 3.68 µg/mL) | 480 | 470 | 480 | O=[N+]([O-])c1ccc2nc(Nc3cc(C(F)(F)F)ccc3F)c(Nc3cc(C(F)(F)F)ccc3F)nc2c1 [Compound 9, N^2, N^3-bis(2-fluoro-5-(trifluoromethyl)phenyl)-6-nitroquinoxaline-2,3-diamine] | 3.68 | 4.63 | 223 | CC50 at 24 h [7]: 106000 nM; global H3K4 methylation compared to the negative control (DMSO) [8]: significant % decrease; Selectivity Index Adult ([9]; HepG2 CC50 over adult worm EC50): 29464; EC50 ([9]; Schistosoma mansoni, adult worms): 3.6 nM
– | – | – | – | – | – | – | > 100 | – | – | – | CC(=O)CC(c1ccccc1)c1c(O)c2ccccc2oc1=O (stereo not drawn) [Warfarin, reference compound] | – | – | – | fraction unbound [10]: 0.0727
